In patent US8557813B2, “2-benzylpyridazinone derivatives as met kinase inhibitors” (Merck Patent GmbH, priority 2007, dated 2013):
Structures can show the parent of a compound that is named as a salt.

How the values were obtained:
Met kinase [1] = biological target: T1, Met kinase (Homo sapiens, UniProt P08581); assay: Met kinase inhibition, cell assay; type: cell-based
Met kinase [2] = biological target: T1, Met kinase; assay: Met kinase inhibition, enzyme assay (flashplate method); type: biochemical; set-up: 6His (N); purchased Upstate 14-526; host or cells: Sf21 insect cells (S. frugiperda), baculovirus
Source text: According to the manufacturer's data (Met, active, upstate, catalogue No. 14-526), Met kinase is expressed for the purposes of protein production in insect cells (Sf21; S. frugiperda) and subsequent affinity-chromatographic purification as “N-terminal 6His-tagged” recombinant human protein in a baculovirus expression vector.
The test plates used are 96-well Flashplate® microtitre plates from Perkin Elmer (Cat. No. SMP200). The components of the kinase reaction described below are pipetted into the assay plate. The Met kinase and the substrate poly Ala-Glu-Lys-Tyr, (pAGLT, 6:2:5:1), are incubated for 3 hrs at room temperature with radioactively labelled ^33P-ATP in the presence and absence of test substances in a total volume of 100 μl. The reaction is terminated using 150 μl of a 60 mM EDTA solution. After incubation for a further 30 min at room temperature, the supernatants are filtered off with suction, and the wells are washed three times with 200 μl of 0.9% NaCl solution each time. The measurement of the bound radioactivity is carried out by means of a scintillation measuring instrument (Topcount NXT, Perkin-Elmer).
The full value used is the inhibitor-free kinase reaction. This should be approximately in the range 6000-9000 cpm. The pharmacological zero value used is staurosporin in a final concentration of 0.1 mM. The inhibitory values (IC50) are determined using the RS1_MTS program.
Kinase Reaction Conditions Per Well:
10 μl of substance to be tested in assay buffer with 10% of DMSO
10 μl of ATP (final concentration 1 μM cold, 0.35 μCi of ^33P-ATP)
50 μl of Met kinase/substrate mixture in assay buffer; • (10 ng of enzyme/well, 50 ng of pAGLT/well) • Solutions Used: • Assay buffer: • 50 mM HEPES • 3 mM magnesium chloride • 3 μM sodium orthovanadate • 3 mM manganese(II) chloride • 1 mM dithiothreitol (DTT) • pH=7.5 (to be set using sodium hydroxide) • Stop Solution: • 60 mM Titriplex III (EDTA) • ^33P-ATP: Perkin-Elmer; • Met kinase: Upstate, Cat. No. 14-526, Stock 1 μg/10 μl; spec. activity 954 U/mg; • Poly-Ala-Glu-Lys-Tyr, 6:2:5:1: Sigma Cat. No. P1152

TPR-Met/NIH3T3 cells = assay: In-vivo test, TPR-Met/NIH3T3 tumor model in mice; conditions: female Balb/C mice, s.c. TPR-Met/NIH3T3 tumors, 200 mg/kg daily by gastric tube, 9 days, tumor volume
Procedure: Experimental Procedure: Female Balb/C mice (breeder: Charles River Wiga) were 5 weeks old on arrival. They were acclimatized to our keeping conditions for 7 days. Each mouse was subsequently injected subcutaneously in the pelvic area with 4 million TPR-Met/NIH3T3 cells in 100 μl of PBS (without Ca++ and Mg++). […] 100 μl of vehicle (0.25% methylcellulose/100 mM acetate buffer, pH 5.5) were administered daily to the control group, and 200 mg/kg of “A56” or “A91” dissolved in the vehicle (volume likewise 100 μl/animal) were administered daily to the treatment groups, in each case by gastric tube.
Measurement of the tumor volume: The length (L) and breadth (B) were measured using a Vernier calliper, and the tumor volume was calculated from the formula L×B×B/2.
Keeping conditions: 4 or 5 animals per cage, feeding with commercial mouse food (Sniff).

T1 sequence (P08581 25-1390): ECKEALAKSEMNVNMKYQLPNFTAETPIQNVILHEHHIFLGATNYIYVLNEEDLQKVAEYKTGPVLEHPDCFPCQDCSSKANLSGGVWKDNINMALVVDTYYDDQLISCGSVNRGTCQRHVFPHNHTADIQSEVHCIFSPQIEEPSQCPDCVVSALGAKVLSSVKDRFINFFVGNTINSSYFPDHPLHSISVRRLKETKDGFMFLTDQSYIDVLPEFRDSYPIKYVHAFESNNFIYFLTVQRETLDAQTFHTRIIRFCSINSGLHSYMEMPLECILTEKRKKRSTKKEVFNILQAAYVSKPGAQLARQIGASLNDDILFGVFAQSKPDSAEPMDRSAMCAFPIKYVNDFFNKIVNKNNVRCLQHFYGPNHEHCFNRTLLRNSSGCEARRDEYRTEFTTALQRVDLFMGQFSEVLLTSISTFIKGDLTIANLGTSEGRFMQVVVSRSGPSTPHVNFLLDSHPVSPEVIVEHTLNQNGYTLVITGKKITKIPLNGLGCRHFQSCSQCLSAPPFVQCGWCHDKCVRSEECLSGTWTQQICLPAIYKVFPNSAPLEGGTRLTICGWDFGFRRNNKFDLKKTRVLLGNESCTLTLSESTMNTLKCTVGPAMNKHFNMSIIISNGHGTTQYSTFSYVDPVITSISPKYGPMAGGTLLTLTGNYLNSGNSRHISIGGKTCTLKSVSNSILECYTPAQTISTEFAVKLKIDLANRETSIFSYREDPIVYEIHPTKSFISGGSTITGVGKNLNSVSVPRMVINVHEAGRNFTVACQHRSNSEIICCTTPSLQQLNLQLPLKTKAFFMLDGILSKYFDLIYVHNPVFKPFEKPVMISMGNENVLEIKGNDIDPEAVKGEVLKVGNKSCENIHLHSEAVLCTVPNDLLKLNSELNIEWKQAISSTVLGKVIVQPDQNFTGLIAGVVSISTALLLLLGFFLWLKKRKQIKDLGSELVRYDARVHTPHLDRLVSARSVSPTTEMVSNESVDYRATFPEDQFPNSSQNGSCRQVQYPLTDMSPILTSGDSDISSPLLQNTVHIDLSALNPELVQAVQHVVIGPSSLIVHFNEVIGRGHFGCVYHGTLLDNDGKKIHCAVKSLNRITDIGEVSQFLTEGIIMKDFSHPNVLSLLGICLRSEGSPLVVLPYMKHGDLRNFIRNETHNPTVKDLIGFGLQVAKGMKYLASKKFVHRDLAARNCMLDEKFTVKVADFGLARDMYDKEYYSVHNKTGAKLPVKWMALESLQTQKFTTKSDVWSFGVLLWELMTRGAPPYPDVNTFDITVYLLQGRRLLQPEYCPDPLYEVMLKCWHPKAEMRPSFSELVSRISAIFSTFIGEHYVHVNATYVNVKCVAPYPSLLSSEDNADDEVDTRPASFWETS

Row | Structure (SMILES) | IC50 (Met kinase [1]) [nM] | IC50 (Met kinase [2]) [nM] | antitumoral action (TPR-Met/NIH3T3 cells)
1 | O=c1ccc(C2CC2)nn1Cc1cccc(-c2ncc(Br)cn2)c1 [Compound A1, 2-[3-(5-bromopyrimidin-2-yl)benzyl]-6-cyclopropyl-2H-pyridazin-3-one] | 100 to 10000 | 1 to 100 | –
2 | O=c1ccc(C2CC2)nn1Cc1cccc(-c2ncc(-c3cnn(CCN4CCCC4)c3)cn2)c1 [Compound A2, 6-cyclopropyl-2-(3-{5-[1-(2-pyrrolidin-1-ylethyl)-1H-pyrazol-4-yl]pyrimidin-2-yl}benzyl)-2H-pyridazin-3-one] | 1 to 100 | 1 to 100 | –
3 | O=c1ccc(C2CC2)nn1Cc1cccc(-c2ncc(-c3cnn(CCN4CCOCC4)c3)cn2)c1 [Compound A3, 6-cyclopropyl-2-(3-{5-[1-(2-morpholin-4-ylethyl)-1H-pyrazol-4-yl]-pyrimidin-2-yl}benzyl)-2H-pyridazin-3-one] | 1 to 100 | 1 to 100 | –
4 | Cc1cnc(-c2cccc(Cn3nc(C4CC4)ccc3=O)c2)nc1 [Compound A4, 6-cyclopropyl-2-[3-(5-methylpyrimidin-2-yl)benzyl]-2H-pyridazin-3-one] | 100 to 10000 | 1 to 100 | –
5 | O=c1ccc(C2CC2)nn1Cc1cccc(-c2ncc(-c3cnn(C4CCNCC4)c3)cn2)c1 [Compound A5, 6-cyclopropyl-2-{3-[5-(1-piperidin-4-yl-1H-pyrazol-4-yl)-pyrimidin-2-yl]benzyl}-2H-pyridazin-3-one] | 1 to 100 | 1 to 100 | –
6 | Cc1ccc(=O)n(Cc2cccc(-c3ncc(-c4cnn(C5CCNCC5)c4)cn3)c2)n1 [Compound A6, 6-methyl-2-{3-[5-(1-piperidin-4-yl-1H-pyrazol-4-yl)pyrimidin-2-yl]benzl}-2H-pyridazin-3-one] | 100 to 10000 | 1 to 100 | –
7 | Cc1nc(-c2cccc(Cn3nc(C4CC4)ccc3=O)c2)no1 [Compound A7, 6-cyclopropyl-2-[3-(5-methyl-1,2,4-oxadiazol-3-yl)benzyl]-2H-pyridazin-3-one] | > 10000 | 100 to 10000 | –

Further lines, with some results ahead:

Row | IC50 (Met kinase [1]) [nM] | IC50 (Met kinase [2]) [nM] | Structure (SMILES) | antitumoral action (TPR-Met/NIH3T3 cells)
8 | 1 to 100 | 1 to 100 | CN(C)CCCOc1cnc(-c2cccc(Cn3nc(C4CC4)ccc3=O)c2)nc1 [Compound A8, 6-cyclopropyl-2-{3-[5-(3-dimethylaminopropoxy)pyrimidin-2-yl]benzyl}-2H-pyridazin-3-one] | –
9 | 1 to 100 | 1 to 100 | CN1CCC(Oc2cnc(-c3cccc(Cn4nc(C5CC5)ccc4=O)c3)nc2)CC1 [Compound A9, 6-cyclopropyl-2-{3-[5-(1-methylpiperidin-4-yloxy)pyrimidin-2-yl]benzyl}-2H-pyridazin-3-one] | –
10 | 100 to 10000 | 1 to 100 | CC(C)c1ccc(=O)n(Cc2cccc(-c3ncc(OCCCN(C)C)cn3)c2)n1 [Compound A10, 2-{3-[5-(3-dimethylaminopropoxy)pyrimidin-2-yl]benzyl}-6-isopropyl-2H-pyridazin-3-one formate] | –
11 | 100 to 10000 | 1 to 100 | O=c1ccc(C2CC2)nn1Cc1cccc(-c2ncc(OC3CCNCC3)cn2)c1 [Compound A11, 6-cyclopropyl-2-{3-[5-(piperidin-4-yloxy)pyrimidin-2-yl]benzyl}-2H-pyridazin-3-one] | –
12 | 1 to 100 | 1 to 100 | CN1CCN(c2cnc(-c3cccc(Cn4nc(C5CC5)ccc4=O)c3)nc2)CC1 [Compound A12, 6-cyclopropyl-2-{3-[5-(4-methylpiperazin-1-yl)pyrimidin-2-yl]benzyl}-2H-pyridazin-3-one] | –
13 | 100 to 10000 | 1 to 100 | CC(C)c1ccc(=O)n(Cc2cccc(-c3ncc(-c4cnn(CCN5CCOCC5)c4)cn3)c2)n1 [Compound A13, 6-isopropyl-2-(3-{5-[1-(2-morpholin-4-ylethyl)-1H-pyrazol-4-yl]pyrimidin-2-yl}benzyl)-2H-pyridazin-3-one] | –
14 | 100 to 10000 | 1 to 100 | O=c1cccnn1Cc1cccc(-c2ncc(-c3cnn(CCN4CCOCC4)c3)cn2)c1 [Compound A14, 2-(3-{5-[1-(2-morpholin-4-ylethyl)-1H-pyrazol-4-yl]pyrimidin-2-yl}benzyl)-2H-pyridazin-3-one] | –
15 | 1 to 100 | 1 to 100 | O=c1ccc(C2CCC2)nn1Cc1cccc(-c2ncc(-c3cnn(CCN4CCCC4)c3)cn2)c1 [Compound A15, 6-cyclobutyl-2-(3-{5-[1-(2-pyrrolidin-1-ylethyl)-1H-pyrazol-4-yl]pyrimidin-2-yl}benzyl)-2H-pyridazin-3-one] | –
16 | 100 to 10000 | 100 to 10000 | Nc1cnc(-c2cccc(Cn3nc(C4CC4)ccc3=O)c2)nc1 [Compound A18, 2-[3-(5-aminopyrimidin-2-yl)benzyl]-6-cyclopropyl-2H-pyridazin-3-one] | significant antitumoral action
